Laboratory results: patent US6149937A, “Liposome encapsulated amphiphilic drug compositions” (priority 1996, dated 2000)
Read-outs that look alike come from different tables or passages of the source. *1 amine or outer side, *2 acyl side, *3 side chain or, on linkers, in order; H or OH if unused. Where a SMILES comes first, the peptide text is derived from it. Bridges are numbered along the chain shown (N, C = ends). Roman numbers before positions name the chains, in order. [ ]: non-standard residue; d: D form. Actinocin(9to1) = Cc1c2oc3c(C)ccc(C(=O)[*:1])c3nc-2c(C(=O)[*:2])c(N)c1=O; NMeV = CN[CH](C(=O)O)C(C)C; Sar = CNCC(=O)O

Legend:
[1] = cited from earlier work
[2] = Cell membrane permeation predicted by TAMMO combined with liposomal entrapment and release assays; details: concluded from TAMMO and liposome assays
[3] = Entrapment of tin(II) dioxinate into MLVs; assay type: physicochemical
Experimental: Egg yolk phosphatidylcholine (14.4 mg, 18.3 μmol) and cholesterol (5.6 mg, 13.7 μmol) were dissolved in chloroform with 0.1, 0.2, 0.3, 0.4, 0.5 mg (1.2 μmol) and 0.6 mg tin(II) dioxinate. After evaporation of the solvent, hydration occurred with NaCl 150 mM 1 ml. The MLVs thus prepared were washed 5 times in order to discard free tin(II) dioxinate.
The number of tin(II) dioxinate molecules inserted into liposomes increased with the number of SnOx2 molecules present in the preliposomal lipid film. Liposomal saturation occurred for a number of moles averaging 1.23 μmoles SnOx2 inserted into 18.3 μmoles EPC (EPC/SnOx2 mole ratio of 15) with an encapsulation efficiency of 30% for MLVs.

[4] = Release of tin(II) dioxinate from MLVs at pH 7.4; assay type: physicochemical
[5] = cited from earlier work; remark: listed apart in the source
[6] = pH 7.4, 37° C.
[7] = MP^0 release from MLVs (dialysis bag, PBS pH 7.4); assay type: physicochemical
[8] = Entrapment of MP^+ into MLVs; assay type: physicochemical; details: EPC/morphine 98, pH 4.5, n=5, referred to 1 mg initially dissolved
[9] = cited from earlier work; remark: listed apart in the source
[10] = not given; remark: listed apart in the source
[11] = not given; remark: listed apart in the source
[12] = cited from earlier work; remark: listed apart in the source
[13] = cited from earlier work; for animal or human results of liposome association: lipid-layer encapsulated
[14] = 10 ml PBS pH 7.4
bacteria = details: References 30-33; listed as oxine; cited from earlier work
[15] = EPC/oxine 4.8, pH 7.4
[16] = Rate of release of BP^+ from MLVs at pH 7.4; assay type: physicochemical
Experimental: A further preparation of liposomal BP^+ pH 6.5 prepared as described above was inserted into a dialysis bag (5 ml containing 353.25 mg EPC and 25 mg BP^+). The bag was immersed in 145 ml PBS pH 7.4 with a renewal rate of 23 ml/hour. Samples of the pH 7.4 medium were harvested at different times and the concentration of bupivacaine was measured by UV spectrophotometry.

[17] = Entrapment of BP^+ into MLVs; assay type: physicochemical; details: for encapsulation efficiency: EPC/BP^+ 6, pH 6.5
Experimental: The bupivacaine concentration was measured by UV spectrophotometry at 271.6 nm. After extraction of BP^+ in chloroform with EPC, 27.5 mg of cholesterol were added thereto. After evaporation of the organic solvent under an inert atmosphere and drying of the lipid film, hydration was carried out at pH 6.5. The encapsulation efficiency was measured by UV spectrophotometry at 271.6 nm.

[18] = Release of bupivacaine from the liposomal BP^0 formulation at pH 7.4; assay type: physicochemical
[19] = Crystals in liposomal BP^0 formulations; assay type: physicochemical
Experimental: These films were hydrated by 1 ml buffer at pH 8.1 and suspended as MLVs with bupivacaine crystals inside and outside the phospholipid […] by freeze-etching electron microscopy. […] This film was suspended as MLVs in 1 ml buffer pH 8.1. […] No crystals were detected from the ratio 17 and above (Table VII).

[20] = not told
[21] = pH 7.8
[22] = formulation with crystals, pH 7.4

CN1CC[C@]23c4c5ccc(O)c4O[C@H]2[C@@H](O)C=C[C@H]3[C@H]1C5 [Morphine, morphine]
duration of action ([1]; intramuscular, epidural or intrathecal): ≥ 12 h

tin(II) dioxinate
ability to cross cell membranes [2]: unable to cross the cell membrane | SnOx2 inserted at liposomal saturation ([3]; 18.3 μmoles EPC): ~1.23 µmol | EPC/SnOx2 mole ratio at saturation ([3]; MLVs): 15 | encapsulation efficiency ([3]; MLVs, EPC/SnOx2 15): 30% | AE (encapsulation efficiency) ([3]; Table III, PL/X 6): 30% | limit of solubility in chloroform (chloroform): 400 µM | limit of solubility in chloroform (chloroform with epc): 4100 µM | Release ([4]; Table III, PL/X 6): > 72 h | Release ([4]; pH 7.4, for at least one week): no release

CCN(CC)CCOC(=O)c1ccc(N)cc1 [Procaine, procaine]
Log Poct ([5]; octanol/water): -1.7

CN1CC[C@]23c4c5ccc(O)c4O[C@H]2[C@@H](O)C=C[C@H]3[C@H]1C5 [MP^0]
duration of slow decrease of concentration [6]: 3 days | time to maximal concentration [6]: 1 h | crystals in the dialysis bag at the end of release ([7]; EPC/MP^0 10): No crystals | Release ([7]; EPC/MP^0 10, 26 and 52): sustained and prolonged | duration of release ([7]; EPC/MP^0 10, pH 7.4): 48 h | duration of release ([7]; EPC/MP^0 26, pH 7.4): 30 h | duration of release ([7]; EPC/MP^0 52, pH 7.4): 24 h | Release ([7]; Table III, PL/X 10): 48 h | Release ([7]; Table III, PL/X 26): 30 h | Release ([7]; Table III, PL/X 52): 24 h | encapsulation [8]: 31.2±2.1%

Clc1cccc(Cl)c1N=C1NCCN1 [Clonidine, clonidine]
Log Poct ([5]; octanol/water): 1.59 | solubility in organic solvents [9]: soluble in octanol when uncharged | solubility in aqueous medium ([9]; water or acidic solution): highly soluble in acidic solution as a cation | leakage from vesicles after 1 hour ([10]; pH 7.4, after 1 hour): Almost all | encapsulation efficiency ([11]; 14.4 mg EPC, 0.5 mg CL^0, pH 7.8, n=6): 14.5%±0.4 | duration of hypotensive action ([1]; human, in vivo): 1 days | pK / pKa [12]: 8.2

Cc1cccc(C)c1NC(=O)C1CCCCN1C (centres unmarked) [Mepivacaine, mepivacaine]
Log Poct ([5]; octanol/water): -0.1 | pKs ([12]; Table II): 7.76

CCCCNc1ccc(C(=O)OCCN(C)C)cc1 [Tetracaine, tetracaine]
Log Poct ([5]; octanol/water): 0.6

CCN(CC)CCOC(=O)c1ccc(N)cc1Cl [Chlorprocaine, chlorprocaine]
Log Poct ([5]; Table II): -0.8

CCCCN1CCCCC1C(=O)Nc1c(C)cccc1C (centres unmarked) [Bupivacaine, bupivacaine]
animal or human results of liposome association [13]: promising animal or effective human results | Log Poct ([5]; Table II): 1.4 | Log Poct ([5]; Table III): 3.6 | log of the partition coefficient between water and octanol ([5]; clonidine: octanol/buffer pH 7.4): 1.8 | plasma level at which systemic toxicity becomes apparent ([1]; human, in vivo): ~1600 ng/mL | therapeutic concentration ([1]; human, in vivo): 1 µg/mL | duration of analgesic action ([1]; peripheral nerve blocks): up to 12 hours

CCCN(CC)C(CC)C(=O)Nc1c(C)cccc1C (centres unmarked) [Etidocaine, etidocaine]
Log Poct ([5]; octanol/water): 2.1

Oc1cccc2cccnc12 [Oxine, 8-hydroxyquinoline]
time of release of a bulk of the liposomal compound [14]: 20 min | partition coefficient octanol/water ([5]; not logarithmic): 67 | bactericidal activity (words) (bacteria): acts as a bactericidal agent by crossing the bacterial cell membrane | oxine entrapped in MLVs [15]: 50% | oxine entrapped in MLVs ([15]; from 0.7 mg): 0.35 mg

CCCCN1CCCCC1C(=O)Nc1c(C)cccc1C (centres unmarked) [BP^0]
duration of release ([16]; 1 ml formulation, pH 7.4): 24 to 48 h | time to maximal concentration ([16]; 1 ml formulation, pH 7.4): 6 to 12 h | duration of release ([16]; 5 ml formulation in dialysis bag, pH 7.4): 72 h | rapid transfer of unencapsulated bupivacaine ([16]; 6 hour, 5 ml in dialysis bag, pH 7.4): 25% | Release ([16]; Table III, PL/X 5): 72 h | AE (encapsulation efficiency) ([17]; Table III, PL/X 5): 75% | encapsulation efficiency ([17]; after 2 hours): 60±1% | encapsulation efficiency ([17]; after 24 hours): 74±0.5% | BP^+ inserted into MLVs ([17]; from 5 mg BP^+, 70.65 mg EPC): 3.7 mg | sensory block ([13]; BP^+ in liposomal aqueous phase, Reference 13): prolongation of the sensory block | motor block ([13]; BP^+ in liposomal aqueous phase, Reference 29): outlasted the analgesic action | Release ([18]; Table III, PL/X 5): 24 to 48 h | release compared with crystal-containing formulation ([18]; crystal-free): slower | peak concentration ([18]; crystal-free, 230.56 mg EPC, 5 mg BP^0, pH 7.4): 5 to 8 µg/mL | time to complete clearance ([18]; crystal-free, pH 7.4): 3 days | time to peak ([18]; crystal-free, pH 7.4): 6 h | maximal concentration ([18]; formulation with crystals, 14.4 mg EPC, 5 mg BP^0, pH 7.4, 37° C.): 7 to 8 µg/mL | time to maximal concentration [18, 22]: 6 to 12 h | time to release of the whole amount [18, 22]: 2 days | Crystals ([19]; EPC/BP ratio 17 and above): No crystals | Crystals ([19]; EPC/BP ratio up to 16): presence of bupivacaine crystals | Crystals ([19]; EPC/BP^0 ratio 13 or above): without crystals | Crystals ([19]; EPC/BP^0 ratio 17): 0 | Crystals ([19]; EPC/BP^0 ratio 20): 0 | Crystals ([19]; EPC/BP^0 ratio 22): 0 | Crystals ([19]; EPC/BP^0 ratio 25): 0 | ability to cross cell membranes [20]: able to cross cell membranes

CCCNC(C)C(=O)Nc1ccccc1C (centres unmarked) [Prilocaine, prilocaine]
Log Poct ([5]; Table II): -0.05

Clc1cccc(Cl)c1NC1=NCCN1 [CL^0]
Release ([10]; Table III, PL/X 5): 0.5 h | AE (encapsulation efficiency) ([11]; Table III, PL/X 5): 14.5% | proportion of species [21]: 28.5% | proportion of species ([21]; listed as CL^+): 71.5%

Cc1c2oc3c(C)ccc(C(=O)NC4C(=O)NC(C(C)C)C(=O)N5CCCC5C(=O)N(C)CC(=O)N(C)C(C(C)C)C(=O)OC4C)c3nc-2c(C(=O)NC2C(=O)NC(C(C)C)C(=O)N3CCCC3C(=O)N(C)CC(=O)N(C)C(C(C)C)C(=O)OC2C)c(N)c1=O (centres unmarked) [actinomycin D] (I: TVP[Sar][NMeV] / II: TVP[Sar][NMeV]; ester I:1-I:C, II:1-II:C; linker I:N-II:N via Actinocin(9to1); configuration not given here)
animal or human results of liposome association [13]: promising animal or effective human results

CCOC(=O)C1(c2ccccc2)CCN(C)CC1 [Meperidine, meperidine]
Log Poct ([5]; octanol/water): 1.3
